In series [1] the target is Histone-lysine N-methyltransferase, H3 lysine-79 specific (Homo sapiens) (UniProt Q8TEK3). Nature of the series: Inhibition of DOT1L (unknown origin) using [methyl-3H]SAM and biotinylated nucleosome PRC2 and H3K27Me3 activator peptide up to 80 uM by [3H]methyl group incorporation assay.
The target of series [2] is DNA (cytosine-5)-methyltransferase 1 (Homo sapiens) (UniProt P26358). Nature of the series: Inhibition of human DNMT1 using [methyl-3H]SAM and biotinylated hemimethylated DNA duplex at 100 uM by [3H]methyl group incorporation assay.
Chain of DNA (cytosine-5)-methyltransferase 1 (Homo sapiens) (P26358 whole entry, the tested form may be a part): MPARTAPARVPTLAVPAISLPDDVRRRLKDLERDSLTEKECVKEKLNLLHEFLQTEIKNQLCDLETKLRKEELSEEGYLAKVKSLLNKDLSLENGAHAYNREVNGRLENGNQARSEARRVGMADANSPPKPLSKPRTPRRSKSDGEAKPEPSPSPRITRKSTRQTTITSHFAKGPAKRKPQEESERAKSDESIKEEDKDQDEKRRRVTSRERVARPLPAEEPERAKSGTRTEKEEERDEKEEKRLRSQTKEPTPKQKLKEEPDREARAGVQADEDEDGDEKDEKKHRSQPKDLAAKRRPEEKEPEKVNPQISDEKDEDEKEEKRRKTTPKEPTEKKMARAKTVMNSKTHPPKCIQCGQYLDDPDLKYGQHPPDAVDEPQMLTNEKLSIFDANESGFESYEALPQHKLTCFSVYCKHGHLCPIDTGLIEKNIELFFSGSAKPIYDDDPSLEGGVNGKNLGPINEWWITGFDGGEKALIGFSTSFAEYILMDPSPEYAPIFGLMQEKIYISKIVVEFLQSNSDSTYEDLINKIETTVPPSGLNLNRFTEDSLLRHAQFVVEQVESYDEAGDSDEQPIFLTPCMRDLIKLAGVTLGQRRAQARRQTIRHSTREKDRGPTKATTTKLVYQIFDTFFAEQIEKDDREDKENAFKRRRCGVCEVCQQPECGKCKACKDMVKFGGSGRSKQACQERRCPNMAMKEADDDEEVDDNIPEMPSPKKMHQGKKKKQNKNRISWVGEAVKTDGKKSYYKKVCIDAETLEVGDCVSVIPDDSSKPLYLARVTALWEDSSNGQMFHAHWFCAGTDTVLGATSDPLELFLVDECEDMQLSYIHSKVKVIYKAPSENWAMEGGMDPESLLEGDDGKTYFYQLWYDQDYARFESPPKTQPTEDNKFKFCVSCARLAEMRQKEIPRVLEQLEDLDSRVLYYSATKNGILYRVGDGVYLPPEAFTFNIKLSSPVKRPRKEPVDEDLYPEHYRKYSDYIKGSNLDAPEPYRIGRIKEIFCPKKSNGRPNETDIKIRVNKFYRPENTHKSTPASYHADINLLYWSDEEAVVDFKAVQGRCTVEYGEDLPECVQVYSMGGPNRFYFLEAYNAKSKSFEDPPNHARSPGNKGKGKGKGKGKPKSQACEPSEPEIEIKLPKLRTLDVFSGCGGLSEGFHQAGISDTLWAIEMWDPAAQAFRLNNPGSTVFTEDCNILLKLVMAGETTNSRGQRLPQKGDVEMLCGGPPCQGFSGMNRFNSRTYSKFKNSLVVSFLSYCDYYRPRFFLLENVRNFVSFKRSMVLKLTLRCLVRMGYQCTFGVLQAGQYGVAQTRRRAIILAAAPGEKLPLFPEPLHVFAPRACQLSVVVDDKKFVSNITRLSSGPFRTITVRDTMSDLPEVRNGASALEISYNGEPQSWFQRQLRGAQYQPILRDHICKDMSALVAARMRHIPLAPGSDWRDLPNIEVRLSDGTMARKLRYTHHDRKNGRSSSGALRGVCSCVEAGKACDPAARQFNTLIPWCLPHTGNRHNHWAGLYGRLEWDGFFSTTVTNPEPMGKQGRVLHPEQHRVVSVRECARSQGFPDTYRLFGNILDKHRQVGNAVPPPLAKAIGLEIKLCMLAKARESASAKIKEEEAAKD
Series [3] concerns the target Histone-lysine N-methyltransferase EZH2 (Homo sapiens) (UniProt Q15910). Description: Inhibition of EZH2 (unknown origin) using [methyl-3H]SAM and biotinylated nucleosome PRC2 and H3K27Me3 activator peptide up to 80 uM by [3H]methyl group incorporation assay.
The target in series [4] is T1, DNA (cytosine-5)-methyltransferase 3A (Homo sapiens, UniProt Q9Y6K1). Nature of the series: Inhibition of human DNMT3A catalytic domain (623 to 912 amino acids) at 100 uM after 1 hr by fluorescence assay.
T1 sequence (Q9Y6K1 whole entry, looked up, the tested form may be a part): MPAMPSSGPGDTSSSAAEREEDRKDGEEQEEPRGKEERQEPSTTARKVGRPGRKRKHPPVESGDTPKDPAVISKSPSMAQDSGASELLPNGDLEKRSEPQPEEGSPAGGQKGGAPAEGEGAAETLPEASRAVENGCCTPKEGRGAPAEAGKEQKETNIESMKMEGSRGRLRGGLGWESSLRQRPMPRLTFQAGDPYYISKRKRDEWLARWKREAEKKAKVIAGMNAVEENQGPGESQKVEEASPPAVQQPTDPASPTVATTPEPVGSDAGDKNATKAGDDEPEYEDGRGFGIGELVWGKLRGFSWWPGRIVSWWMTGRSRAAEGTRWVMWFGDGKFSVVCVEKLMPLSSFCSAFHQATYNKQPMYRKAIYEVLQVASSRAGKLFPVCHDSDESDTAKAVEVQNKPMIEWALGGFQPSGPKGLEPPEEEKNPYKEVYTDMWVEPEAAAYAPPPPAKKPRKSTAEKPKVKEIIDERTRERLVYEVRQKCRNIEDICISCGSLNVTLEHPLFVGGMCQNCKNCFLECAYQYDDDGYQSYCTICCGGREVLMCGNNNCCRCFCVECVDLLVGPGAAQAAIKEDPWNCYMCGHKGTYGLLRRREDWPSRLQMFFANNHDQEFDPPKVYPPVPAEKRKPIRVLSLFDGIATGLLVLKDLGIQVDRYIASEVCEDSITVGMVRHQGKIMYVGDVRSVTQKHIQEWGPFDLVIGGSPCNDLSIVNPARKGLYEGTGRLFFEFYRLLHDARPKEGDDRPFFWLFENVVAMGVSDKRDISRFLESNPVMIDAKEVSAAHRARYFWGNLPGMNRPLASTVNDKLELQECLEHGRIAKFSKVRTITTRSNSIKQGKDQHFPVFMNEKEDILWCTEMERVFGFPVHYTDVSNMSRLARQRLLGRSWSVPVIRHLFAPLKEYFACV
The target of series [5] is DNA (cytosine-5)-methyltransferase 1 (Homo sapiens) (UniProt P26358). Description: Inhibition of human DNMT1 using [methyl-3H]SAM and biotinylated hemimethylated DNA duplex at 50 to 200 uM by [3H]methyl group incorporation assay.
The target of series [6] is T1, DNA (cytosine-5)-methyltransferase 3A. Nature of the series: Inhibition of human DNMT3A catalytic domain (623 to 912 amino acids) at 10 uM after 1 hr by fluorescence assay.
The subject of series [7] is MDA-MB-231. Description: Toxicity against human MDA-MB-231 cells. The class given is cell-based.
Series [8] concerns the target T1, DNA (cytosine-5)-methyltransferase 3A. Nature of the series: Inhibition of human DNMT3A catalytic domain (623 to 912 amino acids) after 1 hr by fluorescence assay.
The test system of series [9] is MDA-MB-231. Description: Inhibition of DNMT in human MDA-MB-231 cells assessed as reduction in methylation level at 200 uM by luminometric methylation assay. The series is classed as cell-based.
The test system of series [10] is MDA-MB-231. Description: Inhibition of DNMT in human MDA-MB-231 cells assessed as reduction in methylation level at 100 uM by luminometric methylation assay. The series is classed as cell-based.
Series [11] relates to MDA-MB-231. Description: Inhibition of DNMT in human MDA-MB-231 cells assessed as reduction in methylation level at 1 uM by luminometric methylation assay. The class given is cell-based.

Activity calls are given as the source filed them. No cut-off for these calls is given here.

Chain of Histone-lysine N-methyltransferase, H3 lysine-79 specific (Homo sapiens) (Q8TEK3 whole entry, looked up): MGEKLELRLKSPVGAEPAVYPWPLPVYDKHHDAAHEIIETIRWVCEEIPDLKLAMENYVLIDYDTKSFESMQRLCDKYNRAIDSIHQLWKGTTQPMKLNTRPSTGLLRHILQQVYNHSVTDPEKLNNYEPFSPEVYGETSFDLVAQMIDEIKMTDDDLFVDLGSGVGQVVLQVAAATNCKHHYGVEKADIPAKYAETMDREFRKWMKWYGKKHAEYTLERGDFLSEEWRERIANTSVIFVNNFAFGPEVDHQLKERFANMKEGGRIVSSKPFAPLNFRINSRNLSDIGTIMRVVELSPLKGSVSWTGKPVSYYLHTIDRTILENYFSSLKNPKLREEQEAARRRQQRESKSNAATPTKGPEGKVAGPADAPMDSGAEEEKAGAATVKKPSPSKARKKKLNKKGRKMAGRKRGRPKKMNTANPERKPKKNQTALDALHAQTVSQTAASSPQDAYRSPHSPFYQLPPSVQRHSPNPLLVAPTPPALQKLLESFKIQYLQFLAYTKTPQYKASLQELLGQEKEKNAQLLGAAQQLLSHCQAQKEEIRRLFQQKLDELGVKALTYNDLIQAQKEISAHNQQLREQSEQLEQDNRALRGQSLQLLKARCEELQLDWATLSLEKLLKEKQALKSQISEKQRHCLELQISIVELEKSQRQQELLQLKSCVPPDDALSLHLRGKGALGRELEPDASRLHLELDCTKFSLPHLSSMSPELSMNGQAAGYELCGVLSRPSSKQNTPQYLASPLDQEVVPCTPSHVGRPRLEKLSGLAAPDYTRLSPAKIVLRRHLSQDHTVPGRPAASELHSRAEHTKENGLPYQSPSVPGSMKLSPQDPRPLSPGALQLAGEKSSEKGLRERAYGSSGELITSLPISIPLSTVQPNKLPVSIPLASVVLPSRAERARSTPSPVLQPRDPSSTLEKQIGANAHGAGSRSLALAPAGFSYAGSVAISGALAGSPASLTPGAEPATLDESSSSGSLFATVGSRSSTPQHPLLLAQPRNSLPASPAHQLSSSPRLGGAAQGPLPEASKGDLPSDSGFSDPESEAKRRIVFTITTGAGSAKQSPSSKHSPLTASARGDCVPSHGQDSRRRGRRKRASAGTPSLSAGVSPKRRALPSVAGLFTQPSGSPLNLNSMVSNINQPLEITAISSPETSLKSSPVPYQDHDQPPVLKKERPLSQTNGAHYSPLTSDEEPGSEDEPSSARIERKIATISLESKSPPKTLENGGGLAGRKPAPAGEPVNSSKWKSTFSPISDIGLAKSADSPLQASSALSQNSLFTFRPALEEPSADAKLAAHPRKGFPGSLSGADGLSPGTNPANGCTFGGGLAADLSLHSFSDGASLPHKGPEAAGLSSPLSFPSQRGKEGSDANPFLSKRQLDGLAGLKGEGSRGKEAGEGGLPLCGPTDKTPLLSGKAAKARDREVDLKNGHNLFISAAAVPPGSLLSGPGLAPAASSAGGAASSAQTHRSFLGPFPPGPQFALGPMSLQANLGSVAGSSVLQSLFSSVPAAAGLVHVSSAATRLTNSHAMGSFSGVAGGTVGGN
Chain of Histone-lysine N-methyltransferase EZH2 (Homo sapiens) (Q15910 whole entry, looked up, the tested form may be a part): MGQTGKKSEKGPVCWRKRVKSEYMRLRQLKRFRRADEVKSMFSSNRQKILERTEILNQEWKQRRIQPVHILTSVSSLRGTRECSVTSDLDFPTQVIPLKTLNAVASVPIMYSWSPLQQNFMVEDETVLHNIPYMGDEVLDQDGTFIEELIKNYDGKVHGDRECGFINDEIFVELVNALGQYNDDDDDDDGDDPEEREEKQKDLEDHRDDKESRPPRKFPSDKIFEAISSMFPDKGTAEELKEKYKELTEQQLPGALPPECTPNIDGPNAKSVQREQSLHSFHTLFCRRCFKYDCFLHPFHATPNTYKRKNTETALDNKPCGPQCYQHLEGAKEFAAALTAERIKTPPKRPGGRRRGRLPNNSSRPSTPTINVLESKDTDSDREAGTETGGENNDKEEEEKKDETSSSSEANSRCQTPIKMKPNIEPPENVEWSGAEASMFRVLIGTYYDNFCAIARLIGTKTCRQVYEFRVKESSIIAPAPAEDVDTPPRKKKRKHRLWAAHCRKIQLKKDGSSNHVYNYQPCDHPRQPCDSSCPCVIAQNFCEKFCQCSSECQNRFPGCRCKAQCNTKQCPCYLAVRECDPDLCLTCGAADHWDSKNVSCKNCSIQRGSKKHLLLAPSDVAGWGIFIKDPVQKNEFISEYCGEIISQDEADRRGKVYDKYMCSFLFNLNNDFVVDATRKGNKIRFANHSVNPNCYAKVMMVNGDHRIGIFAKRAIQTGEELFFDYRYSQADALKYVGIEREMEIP

One may read the inhibition as the drop in the measured response relative to a control, in per cent. With `O=C(O)CCc1ccc(CCNC(=O)c2cccc(Cl)c2)cc1`, the inhibition entry in series [1] and in [3] was “inactive” each time. In [2], this compound displayed an inhibition of under 20%.

For `COc1ccc(Cl)cc1C(=O)NCCc1ccc(CCC(N)=O)cc1`, the inhibition result in series [1] and in series [3] was “inactive” each time. The compound further returned an inhibition in [2] of under 20%.

`COc1ccc(Cl)cc1C(=O)N(C)CCc1ccc(CCC(=O)O)cc1`: the inhibition entry in series [1] and in series [3] was “inactive” each time. This compound also gave an inhibition in series [2] of under 20%.

For the compound `COc1ccc(Cl)cc1NC(=O)CCc1ccc(CCC(=O)O)cc1`, the inhibition entry in series [1] and in series [3] was “inactive” throughout. In [2], this compound yielded an inhibition of under 20%.

For `O=C(O)CCc1ccc(CCNC(=O)c2ccccc2Br)cc1`, the inhibition entry in series [1] and in [3] was “inactive” each time. The compound also returned an inhibition in series [2] of under 20%.

Regarding `COc1ccc(Cl)cc1C(=O)NCCc1ccc(CC(C)C(=O)O)cc1` (stereo not drawn), the inhibition entry in [1] and in [3] was “inactive” in each case. The compound further registered an inhibition in series [2] of under 20%.

As for `COc1ccc(Cl)cc1C(=O)NCCc1ccc(CCC(=O)O)cc1`, the inhibition result in series [1], in [4], in series [5], in [6] and in series [3] was “inactive” in each case. The inhibition in series [2] was determined as 2.9%.

Usually EC50 stands for the concentration that produces a half-maximal response. The low end stands for an effect from little substance, the high end for a need for much substance. Turning to `COc1ccc(Cl)cc1C(=O)NCCc1ccc(O)cc1`, the inhibition result in [1] and in series [3] was “inactive” throughout. Besides, the inhibition is over 60% in series [4], 16% in series [2] and over 13% in series [6]. The Activity entry in series [7] is listed as “Toxic”. Further, the EC50 in series [8] came to 36 µM.

Take `COc1ccc(Cl)cc1C(=O)NCCc1cccc(CCC(=O)O)c1`: the inhibition entry in series [1] and in [3] was “inactive” each time. For the same compound, the inhibition in [2] is under 20%.

Regarding `O=C(O)CCc1ccc(CCNC(=O)c2ccc([N+](=O)[O-])cc2)cc1`, the inhibition result in series [1] and in [3] was “inactive” each time. Also, the inhibition was over 60% in series [4], 14% in series [2] and over 13% in [6]. Moreover, the Activity result in series [7] was “Toxic”.

With `COc1ccc(Cl)cc1C(=O)NCCc1ccc(/C=C/C(=O)O)cc1`, the inhibition result in [1] and in series [3] was “inactive” each time. Further, in series [2], the inhibition is under 20%.

As for `CCc1ccc(CCNC(=O)c2cc(Cl)ccc2OC)cc1`, the inhibition result in series [1] and in [3] was “inactive” throughout. The inhibition in series [2] was under 20%.

Consider `COc1ccc(Cl)cc1C(=O)NCCc1ccc(OCC(=O)O)cc1`, for which the inhibition entry in [1], in series [9], in series [10] and in series [3] was “inactive” each time. For the same compound, the inhibition in series [4] is over 60%; in series [2], 15%; in series [6] it was over 13%. In series [7], the Activity result is listed as “Non-toxic”.

On to `COc1cccc(C(=O)NCCc2ccc(CCC(=O)O)cc2)c1`, for which the inhibition result in [1] and in series [3] was “inactive” throughout. The inhibition in [2] was under 20%.

In the case of `COc1ccc(Cl)cc1CNCCc1ccc(CCC(=O)O)cc1`, the inhibition result in series [1] and in [3] was “inactive” throughout. The inhibition in series [2] is under 20%.

For `COc1ccc(Cl)cc1C(=O)N[C@@H](Cc1ccc(OCC(=O)O)cc1)C(=O)O`, the inhibition entry in series [1], in [10] and in [3] was “inactive” each time. In addition, the inhibition result in series [9] is “Active”. Also, the figures for the inhibition in series [4], in series [2] and in [6] were over 60%, under 20% and over 13%, respectively. The Activity entry in series [7] is on record as “Non-toxic”.

In the case of `COc1ccc(Cl)cc1C(=O)Nc1ccc(CCC(=O)O)cc1`, the inhibition result in [1] and in series [3] was “inactive” in each case. For the same compound, the inhibition was over 60% in series [4], under 20% in series [2] and over 13% in series [6].

For the compound `O=C(O)CCc1ccc(CCNC(=O)c2cc(Cl)ccc2F)cc1`, the inhibition entry in series [1] and in series [3] was “inactive” in each case. Further, the inhibition in [2] is under 20%.

On to `COc1ccc(Cl)cc1C(=O)NCCc1ccc(CC(=O)O)cc1`, for which the inhibition result in series [1] and in series [3] was “inactive” each time. Also, the inhibition in [2] is under 20%.

With `O=C(O)CCc1ccc(CCNC(=O)c2cc(C(F)(F)F)ccc2Cl)cc1`, the inhibition entry in [1], in series [6] and in series [3] was “inactive” throughout. In addition, the inhibition in series [4] is over 60%; in series [2] it was under 20%. In series [7], the Activity result is on record as “Toxic”.

On to `COc1ccc(Cl)cc1C(=O)NCCc1ccc(C(=O)O)cc1`, for which the inhibition entry in [1] and in series [3] was “inactive” in each case. In series [2], the inhibition was under 20%.

Turning to `COc1ccc(Cl)cc1C(=O)NCCc1ccc(CCCO)cc1`, the inhibition entry in series [1] and in series [3] was “inactive” throughout. This compound returned an inhibition in series [2] of under 20%.

In the case of `O=C(O)CCc1ccc(CCNC(=O)c2cccnc2)cc1`, the inhibition result in [1] and in series [3] was “inactive” throughout. The inhibition in series [2] is under 20%.

Turning to `COc1ccc(Cl)cc1C(=O)NCCc1ccc(CCC(=O)N(C)C)cc1`, the inhibition result in series [1] and in [3] was “inactive” each time. Moreover, the inhibition in series [2] is under 20%.

For `Nc1ncn([C@@H]2O[C@H](CO)[C@@H](O)[C@H]2O)c(=O)n1`, the inhibition result in [11] was “Active”.

With `CNC(=O)CCc1ccc(CCNC(=O)c2cc(Cl)ccc2OC)cc1`, the inhibition entry in [1] and in series [3] was “inactive” each time. Further, the inhibition in [2] was under 20%.

With `COc1ccc(Cl)cc1C(=O)NCc1ccc(CCC(=O)O)cc1`, the inhibition entry in series [1] and in [3] was “inactive” in each case. In addition, the inhibition in series [4] is over 60%; in series [2] it was under 20%; in [6] it was over 13%.

`O=C(O)CCc1ccc(CCNC(=O)c2ccccc2F)cc1`: the inhibition entry in [1] and in series [3] was “inactive” throughout. This compound also yielded an inhibition in [2] of under 20%.

For the compound `COc1ccc(Cl)cc1C(=O)NCCc1ccccc1`, the inhibition entry in [1] and in series [3] was “inactive” in each case. Further, the inhibition in [2] was under 20%.

As for `COc1ccc(Cl)cc1C(=O)NCCc1ccc(C(C)CC(=O)O)cc1` (stereo not drawn), the inhibition result in [1] and in series [3] was “inactive” in each case. In series [2], this compound returned an inhibition of under 20%.

Turning to `COc1ccc(Cl)cc1C(=O)NCCc1ccc(CCC(=O)N2CCOCC2)cc1`, the inhibition result in series [1] and in series [3] was “inactive” in each case. Also, the inhibition in series [2] was under 20%.

(Values after ChEMBL document CHEMBL3132825, “Preparation of phenylethylbenzamide derivatives as modulators of DNMT3 activity” (Medchemcomm, 2013).)
